The subject of the experiment is L1210 leukemia ip in BDF1 mice, survival T/C. The experiment can be described thus: NCI In Vivo Anticancer Drug Screen. Data for tumor model L1210 Leukemia (intraperitoneal) in B6D2F1 (BDF1) mice. The note with it: endpoint: mean survival time, higher = longer survival. A digest of the protocol:
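Each compound was tested against a transplantable tumor grown in mice. The endpoint was survival, with treated animals benchmarked against vehicle controls as a simple ratio.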

[1] abbreviates: dose: 50.0 mg/kg/injection, schedule: Q01DX001 (ip), vehicle: saline.
The mark [2] stands for this setting: dose: 100.0 mg/kg/injection, schedule: Q01DX001 (ip), vehicle: saline.
[3] abbreviates: dose: 30.0 mg/kg/injection, schedule: Q01DX Z (ip), vehicle: saline.
Where [4] appears, read: dose: 100.0 mg/kg/injection, schedule: Q04DX003 (ip), vehicle: Klucel (hydroxypropylcellulose) (HPC).
The mark [5] stands for this setting: dose: 400.0 mg/kg/injection, schedule: Q04DX003 (ip), vehicle: Klucel (hydroxypropylcellulose) (HPC).
The mark [6] stands for this setting: dose: 200.0 mg/kg/injection, schedule: Q01DX001 (ip), vehicle: saline.
The mark [7] stands for this setting: dose: 400.0 mg/kg/injection, schedule: Q01DX001 (ip), vehicle: saline.

The structures appear in SMILES notation. Several values for one entry are separate records, joined by “and”; a condition that tells them apart may be missing. Identical values can stand only once. Inconclusive results and toxic doses are left out.

Take `O=NN(CCCl)C(=O)NC1CCCC1`: the T/C was 108 % of control (dose: 3.0 mg/kg/injection, schedule: Q01DX001 (ip), vehicle: saline); 108 % of control (dose: 6.0 mg/kg/injection, schedule: Q01DX001 (ip), vehicle: saline); 112 % of control (dose: 12.0 mg/kg/injection, schedule: Q01DX001 (ip), vehicle: saline); 118 % of control (dose: 18.0 mg/kg/injection, schedule: Q01DX001 (ip), vehicle: saline); 162 % of control (dose: 25.0 mg/kg/injection, schedule: Q01DX001 (ip), vehicle: saline); 222 % of control (dose: 30.0 mg/kg/injection, schedule: Q01DX001 (ip), vehicle: saline). For the same molecule, the T/C reads like this: (dose: 44.0 mg/kg/injection, schedule: Q01DX001 (ip), vehicle: saline) 302 % of control; under setting [1], 328 % of control; (dose: 67.0 mg/kg/injection, schedule: Q01DX001 (ip), vehicle: saline) 278 % of control; (dose: 93.0 mg/kg/injection, schedule: Q01DX001 (ip), vehicle: saline) 243 % of control; under setting [2], 224 % of control and 333 % of control; (dose: 150.0 mg/kg/injection, schedule: Q01DX001 (ip), vehicle: saline) 295 % of control. For the same molecule, the T/C was 197 % of control (dose: 187.0 mg/kg/injection, schedule: Q01DX001 (ip), vehicle: saline); 283 % of control (dose: 375.0 mg/kg/injection, schedule: Q01DX001 (ip), vehicle: saline); 327 % of control (dose: 500.0 mg/kg/injection, schedule: Q01DX001 (ip), vehicle: saline).
On to `Nc1nc(=O)n(C2CC(O)C(CO)O2)cc1F` (centres undefined), for which, under setting [3], the T/C is 105 % of control.
With `CCCCNC(=O)/C=C\C(=O)O`, the T/C was 95 % of control (dose: 50.0 mg/kg/injection, schedule: Q01DX009 (ip), vehicle: saline with Tween-80); 87 % of control (dose: 100.0 mg/kg/injection, schedule: Q01DX009 (ip), vehicle: Klucel (hydroxypropylcellulose) (HPC)); 97 % of control (dose: 100.0 mg/kg/injection, schedule: Q01DX009 (ip), vehicle: saline with Tween-80); 92 % of control (dose: 100.0 mg/kg/injection, schedule: Q01DX009 (ip), vehicle: saline); 100 % of control under setting [4]; 87 % of control (dose: 200.0 mg/kg/injection, schedule: Q01DX009 (ip), vehicle: Klucel (hydroxypropylcellulose) (HPC)). Further, the T/C (dose: 200.0 mg/kg/injection, schedule: Q01DX009 (ip), vehicle: saline with Tween-80) is 95 % of control; the T/C (dose: 200.0 mg/kg/injection, schedule: Q01DX009 (ip), vehicle: saline) is 94 % of control; the T/C (dose: 400.0 mg/kg/injection, schedule: Q01DX009 (ip), vehicle: Klucel (hydroxypropylcellulose) (HPC)) was 100 % of control; the T/C (dose: 400.0 mg/kg/injection, schedule: Q01DX009 (ip), vehicle: saline) was 97 % of control; the T/C under setting [5] was 87 % of control.
For the molecule `CC[Si](C)(C)c1ccc(CCN2CC2)s1`, the T/C (dose: 100.0 mg/kg/injection, schedule: Q01DX001 (ip), vehicle: carboxymethylcellulose (CMC)) was 113 % of control.
In the case of `COC(=O)c1cncc(C(=O)OC)c1`, the T/C (dose: 100.0 mg/kg/injection, schedule: Q04DX003 (ip), vehicle: saline sonified) was 95 % of control; the T/C (dose: 200.0 mg/kg/injection, schedule: Q04DX003 (ip), vehicle: saline sonified) was 104 % of control; the T/C (dose: 400.0 mg/kg/injection, schedule: Q04DX003 (ip), vehicle: saline sonified) is 97 % of control.
With `c1n[nH]c2c1CCC2`, the T/C reads like this: (dose: 75.0 mg/kg/injection, schedule: Q01DX009 (ip), vehicle: saline with Tween-80) 97 % of control; (dose: 150.0 mg/kg/injection, schedule: Q01DX009 (ip), vehicle: saline with Tween-80) 110 % of control.
As to `Cc1cc(Cl)c2c(Cl)ccc(Cl)c2n1`, the T/C is 98 % of control under setting [2], 96 % of control under setting [6] and 98 % of control under setting [7].
For `c1cc2c3c(c1)[I+]c1cccc(c1-3)[I+]2`, the T/C is 112 % of control under setting [1] and 116 % of control under setting [2].
As to `CNC(=O)Nc1ccc(Nc2ccccc2)cc1`, the T/C (dose: 100.0 mg/kg/injection, schedule: Q04DX002 (ip), vehicle: Klucel (hydroxypropylcellulose) (HPC)) was 105 % of control; the T/C (dose: 200.0 mg/kg/injection, schedule: Q04DX002 (ip), vehicle: Klucel (hydroxypropylcellulose) (HPC)) is 97 % of control; the T/C (dose: 400.0 mg/kg/injection, schedule: Q04DX002 (ip), vehicle: Klucel (hydroxypropylcellulose) (HPC)) was 91 % of control.
On to `COc1cc2c(c(OC)c1O)-c1ccc(OC)c(=O)cc1[C@@H](NC(C)=O)CC2`, for which the T/C is, setting by setting: (dose: 25.0 mg/kg/injection, schedule: Q01DX009 (ip), vehicle: saline) 159 % of control; (dose: 50.0 mg/kg/injection, schedule: Q01DX009 (ip), vehicle: saline) 106 % of control and 108 % of control; (dose: 50.0 mg/kg/injection, schedule: Q04DX002 (ip), vehicle: saline) 111 % of control; (dose: 200.0 mg/kg/injection, schedule: Q04DX002 (ip), vehicle: saline) 122 % of control; (dose: 200.0 mg/kg/injection, schedule: Q04DX003 (ip), vehicle: saline) 95 % of control.
With `CCC(CCNC(=O)c1ccccc1)(CCNC(=O)c1ccccc1)[N+](=O)[O-]`, the T/C is 95 % of control under setting [2], 106 % of control under setting [6] and 92 % of control under setting [7].
Turning to `O=C(COc1ccc(Cl)cc1C(=O)O)Nc1ccccc1`, the T/C runs as follows: under setting [4], 93 % of control; (dose: 200.0 mg/kg/injection, schedule: Q04DX003 (ip), vehicle: Klucel (hydroxypropylcellulose) (HPC)) 102 % of control; under setting [5], 98 % of control.
For the molecule `CC1CN=C(CCc2ccc(NC(=O)c3ccc(C(=O)Nc4ccc(CCC5=NCC(C)N5)cc4)cc3)cc2)N1` (centres undefined), the T/C by setting is: (dose: 240.0 mg/kg/injection, schedule: Q01DX Z (ip), vehicle: saline) 97 % of control; (dose: 480.0 mg/kg/injection, schedule: Q01DX Z (ip), vehicle: saline) 92 % of control.
In the case of `CC(C)(C)c1cc(C[P+](c2ccccc2)(c2ccccc2)c2ccccc2)cc(C(C)(C)C)c1O`, the T/C (dose: 1.56 mg/kg/injection, schedule: Q01DX009 (ip), vehicle: saline) was 106 % of control; the T/C (dose: 1.56 mg/kg/injection, schedule: Q04DX003 (ip), vehicle: saline) is 91 % of control; the T/C (dose: 3.12 mg/kg/injection, schedule: Q01DX009 (ip), vehicle: saline) is 105 % of control; the T/C (dose: 3.12 mg/kg/injection, schedule: Q04DX003 (ip), vehicle: saline) was 96 % of control; the T/C (dose: 6.25 mg/kg/injection, schedule: Q04DX003 (ip), vehicle: saline) is 91 % of control.
Take `CCOC(=O)c1cc([N+](=O)[O-])cc2c1-c1c(cc([N+](=O)[O-])cc1[N+](=O)[O-])C2=O`: the T/C by setting is: (dose: 12.5 mg/kg/injection, schedule: Q04DX003 (ip), vehicle: Klucel (hydroxypropylcellulose) (HPC)) 98 % of control; (dose: 25.0 mg/kg/injection, schedule: Q04DX003 (ip), vehicle: Klucel (hydroxypropylcellulose) (HPC)) 101 % of control; (dose: 50.0 mg/kg/injection, schedule: Q04DX003 (ip), vehicle: Klucel (hydroxypropylcellulose) (HPC)) 103 % of control; under setting [4], 96 % of control.
For `NC(N)=N/N=C/c1ccccn1`, the T/C runs as follows: (dose: 15.0 mg/kg/injection, schedule: Q01DX Z (ip), vehicle: saline) 94 % of control; under setting [3], 102 % of control; (dose: 60.0 mg/kg/injection, schedule: Q01DX Z (ip), vehicle: saline) 95 % of control and 101 % of control; (dose: 60.0 mg/kg/injection, schedule: Q01DX Z (oral), vehicle: saline) 103 % of control; (dose: 120.0 mg/kg/injection, schedule: Q01DX Z (ip), vehicle: saline) 96 % of control and 98 % of control; (dose: 120.0 mg/kg/injection, schedule: Q01DX Z (oral), vehicle: saline) 108 % of control. The T/C is, setting by setting: (dose: 240.0 mg/kg/injection, schedule: Q01DX Z (oral), vehicle: saline) 103 % of control; (dose: 480.0 mg/kg/injection, schedule: Q01DX Z (oral), vehicle: saline) 107 % of control.
As to `C=CCOc1c(C)cc(C)cc1/C=C/C`, the T/C is, setting by setting: (dose: 100.0 mg/kg/injection, schedule: Q04DX003 (ip), vehicle: saline with Tween-80) 94 % of control; (dose: 200.0 mg/kg/injection, schedule: Q04DX003 (ip), vehicle: saline with Tween-80) 97 % of control; (dose: 400.0 mg/kg/injection, schedule: Q04DX003 (ip), vehicle: saline with Tween-80) 96 % of control.

Source of the values: PubChem BioAssay AID248 (DTP/NCI, 2004).
